In ChEMBL document CHEMBL2021790, “Pyridone methylsulfone hydroxamate LpxC inhibitors for the treatment of serious gram-negative infections” (J Med Chem, 2012):
pIC50: −log10 of the molar value. Values after ≈ are worked out from the molar mass of the structure shown.

Assays:
Pseudomonas aeruginosa [1] = assay: Antimicrobial activity against wild type Pseudomonas aeruginosa PA01 after 16 to 20 hrs by 2-fold microbroth dilution method; format: functional
[2] = target: T1, UDP-3-O-acyl-N-acetylglucosamine deacetylase (Pseudomonas aeruginosa (strain ATCC 15692 / PAO1 / 1C / PRS 101 / LMG12228), UniProt P47205); assay: Inhibition of Pseudomonas aeruginosa LpxC expressed in Escherichia coli using UDP-3-O-N-acetylglucosamine substrate measured after 30 mins by mass spectrometry
T1 sequence (P47205 whole entry): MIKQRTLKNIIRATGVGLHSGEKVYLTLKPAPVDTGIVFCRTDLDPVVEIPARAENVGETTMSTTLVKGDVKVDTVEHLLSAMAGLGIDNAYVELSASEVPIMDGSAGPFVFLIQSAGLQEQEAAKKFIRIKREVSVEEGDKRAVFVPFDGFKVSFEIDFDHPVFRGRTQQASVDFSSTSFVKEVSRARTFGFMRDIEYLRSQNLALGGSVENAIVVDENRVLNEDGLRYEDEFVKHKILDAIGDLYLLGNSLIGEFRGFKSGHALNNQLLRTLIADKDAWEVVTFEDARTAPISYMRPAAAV

Pseudomonas aeruginosa [3] = assay: Antimicrobial activity against Pseudomonas aeruginosa PA3919 with (delta(mexAB-OprM)delta(mexXY)delta(MexZ) phenotype after 16 to 20 hrs by 2-fold microbroth dilution method; format: functional
Pseudomonas aeruginosa [4] = assay: microbe, parasite or virus in culture
Description: Antimicrobial activity against Pseudomonas aeruginosa after 16 to 20 hrs by 2-fold microbroth dilution method

Citrobacter freundii = assay: microbe, parasite or virus in culture
Description: Antimicrobial activity against Citrobacter freundii after 16 to 20 hrs by 2-fold microbroth dilution method

Klebsiella pneumoniae = assay: microbe, parasite or virus in culture
Description: Antimicrobial activity against Klebsiella pneumoniae after 16 to 20 hrs by 2-fold microbroth dilution method

Klebsiella aerogenes = assay: microbe, parasite or virus in culture
Description: Antimicrobial activity against Enterobacter aerogenes after 16 to 20 hrs by 2-fold microbroth dilution method

Acinetobacter sp. = assay: Antimicrobial activity against Acinetobacter sp. after 16 to 20 hrs by 2-fold microbroth dilution method; format: functional
Escherichia coli = assay: microbe, parasite or virus in culture
Description: Antimicrobial activity against Escherichia coli after 16 to 20 hrs by 2-fold microbroth dilution method

SMILES	MIC (Pseudomonas aeruginosa [1]) [µg/mL]	pIC50 [2]	MIC (Pseudomonas aeruginosa [3]) [µg/mL]	MIC90 (Pseudomonas aeruginosa [4]) [µg/mL]	MIC90 (Citrobacter freundii) [µg/mL]	MIC90 (Klebsiella pneumoniae) [µg/mL]	MIC90 (Klebsiella aerogenes) [µg/mL]	MIC90 (Acinetobacter sp.) [µg/mL]	MIC90 (Escherichia coli) [µg/mL]
Cc1cc(-c2ccccc2)cc(=O)n1CC[C@](C)(C(=O)NO)S(C)(=O)=O	4 (≈ 10.6 µM)	7.66	0.125 (≈ 0.33 µM)	–	–	–	–	–	–
C[C@@](CCn1ccc(-c2ccc(-c3ccon3)cc2)cc1=O)(C(=O)NO)S(C)(=O)=O	0.25 (≈ 0.579 µM)	8.96	0.015 (≈ 0.0348 µM)	–	–	–	–	–	–
Cc1cn(CC[C@](C)(C(=O)NO)S(C)(=O)=O)c(=O)cc1-c1ccccc1	8 (≈ 21.1 µM)	7.52	0.125 (≈ 0.33 µM)	–	–	–	–	–	–
COc1cccc(-c2ccn(CC[C@](C)(C(=O)NO)S(C)(=O)=O)c(=O)c2)c1	1 (≈ 2.54 µM)	8.43	0.03 (≈ 0.0761 µM)	–	–	–	–	–	–
C[C@H]1[C@H](NC(=O)/C(=N\OC(C)(C)C(=O)O)c2csc(N)n2)C(=O)N1S(=O)(=O)O [AZTREONAM]	–	–	–	64 (≈ 147 µM)	> 64	> 64	32 (≈ 73.5 µM)	32 (≈ 73.5 µM)	> 64
Cc1ccn(CC[C@](C)(C(=O)NO)S(C)(=O)=O)c(=O)c1	64 (≈ 212 µM)	< 7.00	8 (≈ 26.5 µM)	–	–	–	–	–	–
CC(CCc1ncc(-c2ccccc2)cn1)(C(=O)NO)S(C)(=O)=O (racemic)	> 64	< 7.00	4 (≈ 11.4 µM)	–	–	–	–	–	–
C[C@@](CCn1ccc(/C=C/c2ccccc2)cc1=O)(C(=O)NO)S(C)(=O)=O	0.5 (≈ 1.28 µM)	8.49	0.03 (≈ 0.0768 µM)	–	–	–	–	–	–
C[C@@](CCn1cc(F)c(-c2ccccc2)cc1=O)(C(=O)NO)S(C)(=O)=O	0.5 (≈ 1.31 µM)	8.64	0.015 (≈ 0.0392 µM)	4 (≈ 10.5 µM)	8 (≈ 20.9 µM)	8 (≈ 20.9 µM)	8 (≈ 20.9 µM)	32 (≈ 83.7 µM)	4 (≈ 10.5 µM)
C[C@@](CCn1ncc(-c2ccccc2)cc1=O)(C(=O)NO)S(C)(=O)=O	32 (≈ 87.6 µM)	< 7.14	1 (≈ 2.74 µM)	–	–	–	–	–	–
CC(CCc1ccc(-c2ccccc2)nc1O)(C(=O)NO)S(C)(=O)=O (racemic)	32 (≈ 87.8 µM)	7.28	1 (≈ 2.74 µM)	–	–	–	–	–	–
Cc1c(-c2ccccc2)ccn(CC[C@](C)(C(=O)NO)S(C)(=O)=O)c1=O	0.5 (≈ 1.32 µM)	8.17	0.015 (≈ 0.0396 µM)	–	–	–	–	–	–
COc1cnc(-c2ccc(-c3ccn(CC[C@](C)(C(=O)NO)S(C)(=O)=O)c(=O)c3)cc2)nc1	0.25 (≈ 0.529 µM)	8.92	0.03 (≈ 0.0635 µM)	–	–	–	–	–	–
COc1cccc(-c2ccn(CC[C@](C)(C(=O)NO)S(C)(=O)=O)c(=O)c2)c1F	0.5 (≈ 1.21 µM)	8.74	0.015 (≈ 0.0364 µM)	–	–	–	–	–	–
C[C@@](CCn1ccc(-c2ccncc2)cc1=O)(C(=O)NO)S(C)(=O)=O	32 (≈ 87.6 µM)	7.41	0.5 (≈ 1.37 µM)	–	–	–	–	–	–
C[C@@](CCn1ccc(-c2cccc(F)c2)cc1=O)(C(=O)NO)S(C)(=O)=O	0.5 (≈ 1.31 µM)	8.52	0.015 (≈ 0.0392 µM)	–	–	–	–	–	–
C[C@@](CCn1ccc(-c2ccccc2F)cc1=O)(C(=O)NO)S(C)(=O)=O	0.25 (≈ 0.654 µM)	8.66	0.015 (≈ 0.0392 µM)	–	–	–	–	–	–
COc1ccc(-c2ccn(CC[C@](C)(C(=O)NO)S(C)(=O)=O)c(=O)c2)cc1F	0.5 (≈ 1.21 µM)	8.70	0.03 (≈ 0.0727 µM)	–	–	–	–	–	–
C[C@@](CCn1ccc(-c2ccccn2)cc1=O)(C(=O)NO)S(C)(=O)=O	4 (≈ 10.9 µM)	7.22	0.25 (≈ 0.684 µM)	–	–	–	–	–	–
COc1ncc(-c2ccc(-c3ccn(CC[C@](C)(C(=O)NO)S(C)(=O)=O)c(=O)c3)cc2)cn1	0.5 (≈ 1.06 µM)	8.70	0.03 (≈ 0.0635 µM)	–	–	–	–	–	–
COc1ccccc1-c1ccn(CC[C@](C)(C(=O)NO)S(C)(=O)=O)c(=O)c1	4 (≈ 10.1 µM)	7.92	0.125 (≈ 0.317 µM)	–	–	–	–	–	–
CC(CCn1ccc(C2CCCCC2)cc1=O)(C(=O)NO)S(C)(=O)=O (racemic)	2 (≈ 5.4 µM)	7.96	0.06 (≈ 0.162 µM)	–	–	–	–	–	–
Cc1cc(C)cc(-c2ccn(CC[C@](C)(C(=O)NO)S(C)(=O)=O)c(=O)c2)c1	2 (≈ 5.1 µM)	8.28	0.125 (≈ 0.318 µM)	–	–	–	–	–	–
C[C@@](CCn1ccc(-c2ccc(-c3ccncc3)cc2)cc1=O)(C(=O)NO)S(C)(=O)=O	0.5 (≈ 1.13 µM)	8.92	0.03 (≈ 0.0679 µM)	–	–	–	–	–	–
